Values quoted from earlier work, collected in US20100173015A1, “COMPOSITIONS AND METHODS FOR THE ABSORPTION, CHELATION, AND ELIMINATION OF TRACE ELEMENTS” (priority 2009, published 2010).

Tests used:
[1] = tested on: human lung embryonic fibroblasts (TIG-1); conditions: TIG-1 cells
[2] = tested on: umbilical vein endothelial (HUVE) cells
NQO1 = conditions: microarray, in the presence of taxifolin
GSTM1 = conditions: microarray, in the presence of taxifolin
CYP2E1 = conditions: microarray, in the presence of taxifolin

For `O=C1c2c(O)cc(O)cc2O[C@H](c2ccc(O)c(O)c2)[C@H]1O` [Dihydroquercetin], the 50% lethal concentration [1] is listed as > 300 µmol, the 50% lethal concentration [2] is listed as > 200 µmol and the “expression of phase II detoxification enzyme NQO1” value (NQO1) is listed as “upregulated”. For the same molecule, the “expression of phase II detoxification enzyme GSTM1” value (GSTM1) was “upregulated” and the “expression of phase I detoxification enzyme CYP2E1” value (CYP2E1) was “down regulated”.
